Assays:
Type in all cases: biochemical
CDK2/Cyclin A2 = CDK2/Cyclin A2 (Homo sapiens (Human), UniProt P24941); assay: Kinase activity assay (Caliper Mobility Shift Assay), CDK2/Cyclin A2
Method: (§1) The inhibitory effect of compounds against the kinase CDK4/cyclin D3 was detected by Caliper Mobility Shift Assay method. The final concentration of the compounds to be tested was set at 10 concentrations starting from 1 uM by 3-fold serial dilution. 5 μL of compounds at 5-fold final concentration and 10 μL of CDK4/cyclin D3 kinase solution at a final concentration of 10 nM was added to a 384-well reaction plate, respectively. The plate was pre-incubated for 10 min at room temperature (with negative control wells containing 10 uL of kinase buffer and 5 uL of 5% DMSO; positive control wells containing 10 μL of kinase solution and 5 uL of 5% DMSO). The reaction was initiated by adding 10 μL of ATP at a final concentration of 250 uM and the corresponding substrate peptide mixture at room temperature for 150 minutes. 30 uL of stop detection solution containing EDTA was added to stop the kinase reaction. Caliper EZ Reader was used to read the conversion rate. Conversion inhibition rate %=(average conversion rate of positive control %−conversion rate of sample %)/(average conversion rate of positive control %−average conversion rate of negative control %). wherein: negative control wells represent the conversion rate readings of wells without enzymatic activity; positive control wells represent conversion readings for wells with no compound inhibition. The log(inhibitor) vs. response—Variable slope of the analysis software GraphPad Prism 5 was used with log concentration value as the X-axis and the percent inhibition rate as the Y-axis to fit the dose-response curve, the IC50 value of each compound on the enzyme activity was thus obtained. Calculation formula: Y=Bottom+(Top−Bottom)/(1+10^((Log IC50−X)*HillSlope)).
(§2) The IC50 values and inhibitory activities of compounds of the present disclosure on CDK6/Cyclin D3, CDK2/Cyclin A2, and CDK9/cyclin T1 were tested in a similar manner.

CDK4/cyclin D3 = CDK4/cyclin D3 (Homo sapiens (Human), UniProt P11802); assay: Kinase activity assay (Caliper Mobility Shift Assay), CDK4/cyclin D3; settings: 10 nM kinase, 250 uM ATP
Method: as §1

CDK6/Cyclin D3 = CDK6/Cyclin D3 (Homo sapiens (Human), UniProt Q00534); assay: Kinase activity assay (Caliper Mobility Shift Assay), CDK6/Cyclin D3
Method: as §1, §2

Sequence of CDK4/cyclin D3 (P11802 whole entry, species assumed): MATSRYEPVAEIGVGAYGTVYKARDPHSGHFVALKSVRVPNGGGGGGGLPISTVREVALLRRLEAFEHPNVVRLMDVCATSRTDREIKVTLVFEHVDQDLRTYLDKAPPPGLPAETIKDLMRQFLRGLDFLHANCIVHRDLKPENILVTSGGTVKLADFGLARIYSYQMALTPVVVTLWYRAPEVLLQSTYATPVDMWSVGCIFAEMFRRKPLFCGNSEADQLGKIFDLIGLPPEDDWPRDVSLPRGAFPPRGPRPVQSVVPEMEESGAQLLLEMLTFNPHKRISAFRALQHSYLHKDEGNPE
Sequence of CDK4/cyclin D3 (P30281 whole entry partner, species assumed): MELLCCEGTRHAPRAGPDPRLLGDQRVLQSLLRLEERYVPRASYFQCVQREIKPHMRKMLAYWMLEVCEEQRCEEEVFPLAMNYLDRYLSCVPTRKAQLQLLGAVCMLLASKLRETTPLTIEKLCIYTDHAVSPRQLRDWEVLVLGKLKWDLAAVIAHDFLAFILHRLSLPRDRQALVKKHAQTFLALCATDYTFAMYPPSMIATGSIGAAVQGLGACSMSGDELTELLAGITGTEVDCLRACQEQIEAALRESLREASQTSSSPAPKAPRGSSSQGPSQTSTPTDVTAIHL
Sequence of CDK6/Cyclin D3 (Q00534 whole entry, species assumed): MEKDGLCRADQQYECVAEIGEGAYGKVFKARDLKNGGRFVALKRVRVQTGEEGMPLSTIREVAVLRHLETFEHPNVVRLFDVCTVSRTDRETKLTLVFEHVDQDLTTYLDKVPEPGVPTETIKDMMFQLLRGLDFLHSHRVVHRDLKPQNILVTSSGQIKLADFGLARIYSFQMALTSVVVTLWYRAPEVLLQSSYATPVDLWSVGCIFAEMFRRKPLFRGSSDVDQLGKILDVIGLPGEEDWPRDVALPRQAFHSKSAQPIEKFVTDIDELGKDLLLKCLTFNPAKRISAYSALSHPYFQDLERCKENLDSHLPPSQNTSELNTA
Sequence of CDK6/Cyclin D3 (P30281 whole entry partner, species assumed): as the sequence (P30281 whole entry partner, species assumed) above

SMILES	IC50 (CDK2/Cyclin A2)	IC50 (CDK4/cyclin D3)	IC50 (CDK6/Cyclin D3)
CC(C)c1noc2ccc3cnc(N[C@H]4CC[C@H](Nc5ncccn5)CC4)nc3c12 [I.3, (1R,4R)-N^1-(9-isopropylisoxazolo[5,4-h]quinazolin-2-yl)-N^4-(pyrimidin-2-yl)cyclohexane-1,4-diamine]	258 nM	26 nM	38 nM
CC(C)c1noc2ccc3cnc(NC4CCNCC4)nc3c12 [I.4, 9-isopropyl-N-(piperidin-4-yl)isoxazolo[5,4-h]quinazolin-2-amine]	249 nM	47 nM	68 nM
CC(C)c1noc2ccc3cnc(NC4CCN(S(C)(=O)=O)CC4)nc3c12 [I.5, 9-isopropyl-N-(1-(methylsulfonyl)piperidin-4-yl)isoxazolo[5,4-h]quinazolin-2-amine]	1 nM	10 nM	24 nM
CC(C)c1noc2c(F)cc3cnc(NC4CCN(S(C)(=O)=O)CC4)nc3c12 [I.6, 6-fluoro-9-isopropyl-N-(1-(methylsulfonyl)piperidin-4-yl)isoxazolo[5,4-h]quinazolin-2-amine]	1 nM	5 nM	12 nM
CC(C)c1noc2c(Cl)cc3cnc(NC4CCN(S(C)(=O)=O)CC4)nc3c12 [I.7, 6-chloro-9-isopropyl-N-(1-(methylsulfonyl)piperidin-4-yl)isoxazolo[5,4-h]quinazolin-2-amine]	8 nM	7 nM	3 nM
CC(C)c1noc2c(Br)cc3cnc(NC4CCN(S(C)(=O)=O)CC4)nc3c12 [I.8, 6-bromo-9-isopropyl-N-(1-(methylsulfonyl)piperidin-4-yl)isoxazolo[5,4-h]quinazolin-2-amine]	9 nM	6 nM	3 nM
CC(C)c1noc2c(C(F)F)cc3cnc(NC4CCN(S(C)(=O)=O)CC4)nc3c12 [I.9, 6-(difluoromethyl)-9-isopropyl-N-(1-(methylsulfonyl)piperidin-4-yl)isoxazolo[5,4-h]quinazolin-2-amine]	5 nM	6 nM	7 nM
CC(C)c1noc2c(CO)cc3cnc(NC4CCN(S(C)(=O)=O)CC4)nc3c12 [I.10, (9-isopropyl-2-((1-(methylsulfonyl)piperidin-4-yl)amino)isoxazolo[5,4-h]quinazolin-6-yl)methanol]	49 nM	72 nM	71 nM
[2H]c1cc2cnc(NC3CCN(S(C)(=O)=O)CC3)nc2c2c(C(C)C)noc12 [I.11, 9-isopropyl-N-(1-(methylsulfonyl)piperidin-4-yl)isoxazolo[5,4-h]quinazolin-6-d-2-amine]	1 nM	10 nM	24 nM
Cc1cc2cnc(NC3CCN(S(C)(=O)=O)CC3)nc2c2c(C(C)C)noc12 [I.12, 9-isopropyl-6-methyl-N-(1-(methylsulfonyl)piperidin-4-yl)isoxazolo[5,4-h]quinazolin-2-amine]	1 nM	5 nM	13 nM
C[C@@]1(O)CCC[C@H]1c1noc2ccc3cnc(NC4CCN(S(C)(=O)=O)CC4)nc3c12 [I.13, (1R,2S)-1-methyl-2-(2-((1-(methylsulfonyl)piperidin-4-yl)amino)isoxazolo[5,4-h]quinazolin-9-yl)cyclopentan-1-ol]	1 nM	3 nM	6 nM
C[C@@]1(O)CCC[C@H]1c1noc2c(C(F)F)cc3cnc(NC4CCN(S(C)(=O)=O)CC4)nc3c12 [I.14, (1R,2S)-2-(6-(difluoromethyl)-2-((1-(methylsulfonyl)piperidin-4-yl)amino)isoxazolo[5,4-h]quinazolin-9-yl)-1-methylcyclopentan-1-ol]	2 nM	5 nM	8 nM
CC(C)c1noc2c1-c1nc(NC3CCN(S(C)(=O)=O)CC3)ncc1CC2 [I.15, 9-isopropyl-N-(1-(methylsulfonyl)piperidin-4-yl)-5,6-dihydroisoxazolo[5,4-h]quinazolin-2-amine]	2 nM	10 nM	8 nM
CC(C)n1nnc2ccc3cnc(N[C@H]4CC[C@H](N)CC4)nc3c21 [II.1, (1R,4R)-N1-(1-isopropyl-1H-[1,2,3]triazolo[4,5-h]quinazolin-8-yl)cyclohexane-1,4-diamine]	> 500 nM	> 500 nM	> 500 nM
CC(C)n1nnc2ccc3cnc(N[C@H]4CC[C@H](NC5CCNCC5)CC4)nc3c21 [II.3, (1R,4R)-N^1-(1-isopropyl-1H-[1,2,3]triazolo[4,5-h]quinazolin-8-yl)-N^4-(piperidin-4-yl)cyclohexane-1,4-diamine]	12 nM	22 nM	26 nM
COCCN[C@H]1CC[C@H](Nc2ncc3ccc4nnn(C(C)C)c4c3n2)CC1 [II.4, (1R,4R)-N^1-(1-isopropyl-1H-[1,2,3]triazolo[4,5-h]quinazolin-8-yl)-N^4-(2-methoxyethyl)cyclohexane-1,4-diamine]	20 nM	16 nM	22 nM
CC(C)n1nnc2ccc3cnc(N[C@H]4CC[C@H](Nc5ncccn5)CC4)nc3c21 [II.5, (1R,4R)-N^1-(1-isopropyl-1H-[1,2,3]triazolo[4,5-h]quinazolin-8-yl)-N^4-(pyrimidin-2-yl)cyclohexane-1,4-diamine]	140 nM	22 nM	34 nM
CC(C)n1nnc2ccc3cnc(N[C@H]4CC[C@H](N(C)C)CC4)nc3c21 [II.6, (1R,4R)-N^1-(1-isopropyl-1H-[1,2,3]triazolo[4,5-h]quinazolin-8-yl)-N^4,N^4-dimethylcyclohexane-1,4-diamine]	35 nM	10 nM	12 nM
CC(C)n1nnc2ccc3cnc(N[C@H]4CC[C@H](N5CCN(C6CCCC6)CC5)CC4)nc3c21 [II.7, N-((1R,4R)-4-(4-cyclopentylpiperazin-1-yl)cyclohexyl)-1-isopropyl-1H-[1,2,3]triazolo[4,5-h]quinazolin-8-amine]	465 nM	40 nM	26 nM
CC(C)n1nnc2ccc3cnc(N[C@H]4CC[C@H](N5CCN(C(=O)C6CC6)CC5)CC4)nc3c21 [II.9, Cyclopropyl(4-((1R,4R)-4-((1-isopropyl-1H-[1,2,3]triazolo [4,5-h]quinazolin-8-yl)amino)cyclohexyl)piperazin-1-yl) ketone]	356 nM	26 nM	35 nM
CC(C)n1nnc2ccc3cnc(N[C@H]4CC[C@H](N5CCN(C(=O)c6ccccc6)CC5)CC4)nc3c21 [II.10, (4-((1R,4R)-4-((1-isopropyl-1H-[1,2,3]triazolo[4,5-h]quinazolin-8-yl)amino)cyclohexyl)piperazin-1-yl)(phenyl) ketone]	336 nM	22 nM	46 nM
CC(C)n1nnc2ccc3cnc(NC4CCC(NS(C)(=O)=O)CC4)nc3c21 (stereo not drawn) [II.11, N-(4-((1-isopropyl-1H-[1,2,3]triazolo[4,5-h]quinazolin-8-yl)amino)cyclohexyl)methanesulfonamide]	1 nM	8 nM	15 nM
CC(C)n1nnc2ccc3cnc(NC4CCNCC4)nc3c21 [II.12, 1-isopropyl-N-(piperidin-4-yl)-1H-[1,2,3]triazolo[4,5-h] quinazolin-8-amine]	151 nM	51 nM	89 nM
CC(C)n1nnc2ccc3cnc(NC4CCN(C)CC4)nc3c21 [II.13, 1-isopropyl-N-(1-methylpiperidin-4-yl)-1H-[1,2,3]triazolo [4,5-h]quinazolin-8-amine]	110 nM	41 nM	90 nM
CC(C)n1nnc2ccc3cnc(NC4CCN(S(C)(=O)=O)CC4)nc3c21 [II.14, 1-isopropyl-N-(1-(methylsulfonyl)piperidin-4-yl)-1H-[1,2,3] triazolo[4,5-h]quinazolin-8-amine]	0.2 nM	3 nM	5 nM
CCS(=O)(=O)N1CCC(Nc2ncc3ccc4nnn(C(C)C)c4c3n2)CC1 [II.15, N-(1-(ethylsulfonyl)piperidin-4-yl)-1-isopropyl-1H-[1,2,3] triazolo[4,5-h]quinazolin-8-amine]	0.3 nM	3 nM	4 nM
CC(C)n1nnc2ccc3cnc(NC4CCN(S(=O)(=O)C5CC5)CC4)nc3c21 [II.16, N-(1-(cyclopropylsulfonyl)piperidin-4-yl)-1-isopropyl-1H-[1,2,3]triazolo[4,5-h]quinazolin-8-amine]	0.2 nM	3 nM	5 nM
CC(C)n1nnc2ccc3cnc(NC4CCN(S(=O)(=O)CC5CC5)CC4)nc3c21 [II.17, N-(1-((cyclopropylmethyl)sulfonyl)piperidin-4-yl)-1-iso-propyl-1H-[1,2,3]triazolo[4,5-h]quinazolin-8-amine]	1 nM	8 nM	15 nM

From patent US20230416271A1, “HETEROARYLQUINAZOLINE COMPOUNDS AS PROTEIN KINASE INHIBITORS” (CHENGDU CYNOGEN BIO-PHARMACEUTICAL TECHNOLOGY CO., LTD., priority 2020, published 2023)
